Laboratory results published in BindingDB's records for doi:10.1016/j.bmcl.2013.03.093 (Rhône-Poulenc Rorer, 2013).

Test: Antagonist activity at CRTh2 receptor in human whole blood assessed as inhibition of PGD2-induced eosinophil shape change preincubated for 10 mins followed by PGD2 addition measured after 4 mins by side scatter analysis

| Compound | IC50 |
| --- | --- |
| Cc1c(CC(=O)O)c(-c2ccc(Cl)cc2)nn1Cc1ccccc1S(=O)(=O)c1ccccc1 | 8100 nM |
| Cc1c(CC(=O)O)c(-c2ccccc2)nn1Cc1ccccc1S(=O)(=O)c1ccccc1 | 2400 nM |
| Cc1nn(-c2cccc(NC(=O)[C@H]3C[C@@H]3c3ccccc3)c2)c(C)c1CC(=O)O | 2100 nM |

Compounds with a lower IC50, results first:

| IC50 | Compound |
| --- | --- |
| 1700 nM | Cc1nn(Cc2ccccc2S(=O)(=O)c2ccccc2)c(C)c1CC(=O)O |
| 1000 nM | Cc1c(CC(=O)O)c(=O)[nH]n1Cc1ccccc1S(=O)(=O)c1ccccc1 |
